Common to all, as to details: stereoisomer not certain
The nature of series [1]: RP, Agilent ZORBAX Eclipse XDB-C18, 100 × 2.1 mm, 1.8 µm, 50 °C, 0.4 mL/min, estimated dead time 0.55 min; A: water + 0.1% formic acid, pH 3; B: methanol + 0.1% formic acid, pH 3; gradient (min/%B) 0/2 10/100 14.5/100 14.51/2 16.5/2.
Series [2] can be described thus: RP, Agilent ZORBAX RRHD Eclipse Plus C18, 50 × 2.1 mm, 1.8 µm, 30 °C, 0.4 mL/min, estimated dead time 0.28 min; A: water + 0.1% formic acid, pH 3; B: acetonitrile + 0.1% formic acid, pH 3; gradient (min/%B) 0/1 5/10 8/25 9.1/99 10/99 12/1.
Series [3] in a line: RP, Agilent ZORBAX RRHD Eclipse Plus C18, 50 × 2.1 mm, 1.8 µm, 30 °C, 0.4 mL/min, estimated dead time 0.28 min; A: water + 0.1% formic acid, pH 3; B: acetonitrile + 0.1% formic acid, pH 3; gradient (min/%B) 0/1 5/10 8/25 9.1/99 10/99 12/99.
The nature of series [4]: RP, Waters Atlantis T3, 100 × 2.1 mm, 3 µm, 40 °C, 0.3 mL/min, estimated dead time 0.73 min; A: water + 0.1% trifluoroacetic acid, pH 2; B: acetonitrile + 0.1% trifluoroacetic acid, pH 2; gradient (min/%B) 0/10 1/10 6/40 7/50 8/50 14/70 16/80 20/10 25/10.
Series [5] is described as follows: Other, Phenomenex Kinetex PFP, 100 × 4.6 mm, 2.6 µm, 35 °C, 1.5 mL/min, estimated dead time 0.71 min; A: water + 0.1% trifluoroacetic acid, pH 2; B: acetonitrile + 0.1% trifluoroacetic acid, pH 2; gradient (min/%B) 0/1 7/7.5 14/7.6 17/10 18.5/12 20/12.5 24/30 25/90 25.1/1 32/1.
A short description of series [6]: RP, Phenomenex Synergi Hydro-RP, 250 × 2 mm, 4 µm, 25 °C, 0.2 mL/min, estimated dead time 2.5 min; A: water + 0.1% formic acid, pH 3; B: acetonitrile + 0.1% formic acid, pH 3; gradient (min/%B) 0/0.5 7/0.5 12/12.5 25/16.3 47/35 48/65 50/65 50.1/0.5.
A short description of series [7]: RP, Agilent InfinityLab Poroshell 120 EC-C18, 100 × 3 mm, 2.7 µm, 25 °C, 0.4 mL/min, estimated dead time 1.1 min; A: water + 0.1% formic acid, pH 3; B: acetonitrile + 0.1% formic acid, pH 3; gradient (min/%B) 0/5 10/25 20/40 24/90 25/90 26/5 30/5.
A short description of series [8]: Other, Phenomenex Kinetex PFP, 100 × 4.6 mm, 5 µm, 45 °C, 0.6 mL/min, estimated dead time 1.8 min; A: water + 0.1% trifluoroacetic acid, pH 2; B: methanol; gradient (min/%B) 0/40 20/72 21/40.
The nature of series [9]: RP, 150 × 2.1 mm, 2.6 µm, 40 °C, 0.35 mL/min, estimated dead time 0.94 min; A: water + 0.1% formic acid, pH 3; B: acetonitrile + 0.1% formic acid, pH 3; gradient (min/%B) 0/0 1/0 12.5/100 14/100 14.2/0 15/0.
Series [10] is described as follows: RP, 150 × 2.1 mm, 2.6 µm, 40 °C, 0.35 mL/min, estimated dead time 0.94 min; A: water + 0.1% formic acid, pH 3; B: acetonitrile + 0.1% formic acid, pH 3; gradient (min/%B) 0/0 1/5 7/45 8.5/80 10.5/80 11/5 12/5.
Series [11] can be described thus: RP, Phenomenex Kinetex EVO C18, 100 × 2.1 mm, 2.6 µm, 40 °C, 0.4 mL/min, estimated dead time 0.55 min; A: water + 0.2% formic acid; B: acetonitrile + 0.2% formic acid; gradient (min/%B) 0/5 0.5/5 7/95 8/95 8.5/5 12/5.
Series [12] in a line: RP, Waters ACQUITY UPLC HSS T3, 100 × 2.1 mm, 50 °C; A: water + 0.1% formic acid, pH 3; B: 30% methanol + 70% acetonitrile + 0.1% formic acid, pH 3; gradient (min/%B) 0/5 1/8 2/15 3/40 4/70 4.5/100 5/100 6.4/100 6.6/5 6.8/5 7/5.
Series [13] is described as follows: RP, Waters ACQUITY UPLC BEH C18, 100 × 2.1 mm, 1.7 µm, 65 °C, 0.4 mL/min, estimated dead time 0.55 min; A: water + 0.1% formic acid, pH 3; B: 80% acetonitrile + 20% acetone + 0.1% formic acid, pH 3; gradient (min/%B) 0/0 5/100 5.5/0 6/0.
Series [14] in a line: RP, Merck LiChrospher RP-18, 250 × 4 mm, 5 µm, 35 °C, 0.3 mL/min, estimated dead time 6.7 min; A: water + 0.5% formic acid; B: acetonitrile + 0.5% formic acid; gradient (min/%B) 0/5 10/5 30/15 45/20 65/20 95/54 110/63 115/5 135/5.
Series [15] in a line: RP, 50 × 0.5 mm, 2.7 µm, 35 °C, 0.01 mL/min, estimated dead time 0.62 min; A: water + 0.1% formic acid, pH 3; B: acetonitrile + 0.1% formic acid, pH 3; gradient (min/%B) 0/5 12/95 14/95 16/5.
Series [16] can be described thus: RP, Phenomenex Synergi Hydro-RP, 150 × 2 mm, 4 µm, 30 °C, 0.5 mL/min, estimated dead time 0.6 min; A: water + 0.1% formic acid, pH 3; B: acetonitrile + 0.1% formic acid, pH 3; gradient (min/%B) 0/5 1/5 35/45 40/100 45/100.
The nature of series [17]: RP, Phenomenex Luna C18, 150 × 4.6 mm, 3 µm, 25 °C, 0.5 mL/min, estimated dead time 3.2 min; A: water + 0.1% formic acid, pH 3; B: acetonitrile + 0.1% formic acid, pH 3; gradient (min/%B) 0/0 30/30 35/40 50/80 52/80 60/0 65/0.
The nature of series [18]: RP, Phenomenex Luna Omega Polar C18, 100 × 2.1 mm, 1.6 µm, 40 °C, 0.5 mL/min, estimated dead time 0.44 min; A: water + 0.1% formic acid + 10 mM ammonium formate; B: acetonitrile; gradient (min/%B) 0/5 8/20 10/100 12/100 12.1/5 14/5.
Series [19] in a line: RP, Waters ACQUITY UPLC HSS T3, 100 × 2.1 mm, 1.8 µm, 30 °C, 0.4 mL/min, estimated dead time 0.55 min; A: water + 0.1% formic acid, pH 3; B: acetonitrile + 0.1% formic acid, pH 3; gradient (min/%B) 0/0 2/0 15/100 22/100 22.1/0 26/0.
Series [20] is described as follows: RP, Waters ACQUITY UPLC BEH Shield RP18, 100 × 2.1 mm, 1.7 µm, 30 °C, 0.6 mL/min, estimated dead time 0.37 min; A: water + 0.1% formic acid, pH 3; B: acetonitrile + 0.1% formic acid, pH 3; gradient (min/%B) 0/0 2/0 7/10 22/95 22.1/0 26/0.
Series [21] is described as follows: RP, Waters ACQUITY UPLC BEH Shield RP18, 150 × 2.1 mm, 1.7 µm, 40 °C, 0.4 mL/min, estimated dead time 0.83 min; A: water + 0.1% formic acid, pH 3; B: acetonitrile + 0.1% formic acid, pH 3; gradient (min/%B) 0/0 30/50 31/100 37/100 37.1/0.

`O=C(O)c1cccc(O)c1O` [2,3-Dihydroxybenzoic acid]: the LC retention time in series [1] is 3.5 min; in series [2], 5.18 min; in series [3], 3.99 min; in [4], 4.79 min; in series [5] it was 9.73 min.
For the compound `O=C(O)c1c(O)cc(O)cc1O` [2,4,6-trihydroxybenzoic acid], the LC retention time is 15.9 min in [6] and 9.72 min in series [5].
For the compound `O=C(O)c1ccc(O)cc1O` [2,4-Dihydroxybenzoic acid], the LC retention time was 5.18 min in series [2]; 3.99 min in series [3]; 6.36 min in series [7]; 5.01 min in [4]; 10.9 min in series [5].
Take `O=C(O)Cc1ccc(O)c(O)c1` [3,4-Dihydroxyphenylacetic acid]: the LC retention time in [8] is 3.74 min; in series [9], 7.07 min; in [10], 7.28 min; in [1] it was 2.55 min; in [2] it was 3.6 min; in [3], 1.47 min. Moreover, the LC retention time is 17 min in series [6] and 15.3 min in [5].
Consider `O=C(O)c1cc(O)cc(O)c1` [3,5-Dihydroxybenzoic acid], for which the LC retention time in [2] was 4.25 min; in series [3], 2.82 min; in series [5] it was 4.93 min.
As to `O=Cc1ccc(O)cc1` [4-Hydroxybenzaldehyde], the LC retention time in series [11] was 3.43 min; in series [12], 3.28 min; in [1] it was 3.42 min; in [13], 1.92 min; in series [2], 5.23 min; in [3], 4.4 min. Moreover, in series [5], the LC retention time is 9.81 min.
For `Cc1ccc(C(=O)NCC(=O)O)cc1` [4-methylhippuric acid], the LC retention time in series [5] is 14.5 min.
On to `COc1cccc(O)c1C(=O)O` [6-Methoxysalicyclic acid], for which, in series [5], the LC retention time was 22.1 min.
With `O=c1ccc2ccc(O)c(O)c2o1` [7,8-Dihydroxycoumarin], the LC retention time was 4.84 min in [9], 4.64 min in series [10], 6.14 min in series [2] and 12 min in [5].
In the case of `O=C(O)c1ccccc1` [Benzoic acid], the LC retention time in series [8] was 7.84 min; in series [14], 71.8 min; in series [1] it was 5.17 min; in [2], 7.44 min; in series [3], 7.28 min; in series [6], 35.5 min. The LC retention time in series [5] is 15.4 min.
For `COc1cc(CC(=O)O)ccc1O` [Homovanillic acid], the LC retention time is 3.03 min in series [15]; 10.2 min in series [16]; 16.4 min in series [17]; 4.17 min in [18]; 8.67 min in series [19]; 3.69 min in series [1]. Also, the LC retention time in series [20] is 16 min; in [21] it was 10.3 min; in series [2], 5.94 min; in series [3], 2.83 min; in series [7] it was 6.83 min; in [5], 18.8 min.
For `O=C(O)CC(=O)O` [Malonic acid], the LC retention time in series [5] is 1.52 min.
The same measure, in the same setting: then `COC(=O)c1cc(O)c(O)c(O)c1` [Methyl 3,4,5-trihydroxybenzoate], with 8.64 min.
As to `COC(=O)c1ccc(O)c(O)c1` [Methyl 3,4-dihydroxybenzoate], the LC retention time in series [5] is 15.3 min.
As for `COC(=O)c1ccc(O)c(OC)c1` [Methyl vanillate], the LC retention time was 5.37 min in series [1] and 23 min in series [5].
For the compound `O=Cc1c(O)cc(O)cc1O` [Phloroglucinol aldehyde], the LC retention time in series [6] is 27.6 min; in series [5], 18.5 min.
Take `O=C(O)c1ccccc1O` [Salicylic acid]: the LC retention time in series [14] was 81.6 min; in series [19], 10.5 min; in series [1] it was 5.25 min; in [21] it was 12.8 min; in [2], 8.13 min; in series [3] it was 8.16 min. Moreover, the LC retention time in [6] is 37.4 min; in series [5] it was 18.9 min.
As for `COc1cc2ccc(=O)oc2cc1O` [Scopoletin], the LC retention time is 5.86 min in series [9], 5.8 min in [10] and 20.4 min in series [5].
For the compound `COc1ccc(C(=O)O)cc1` [p-anisic acid], the LC retention time in [6] was 39.1 min; in series [5], 20.6 min.
